Laboratory results as given in the supplement of paper PMC10307832.

Compound: C[C@@H](Oc1cc(-c2cnn(C3CCNCC3)c2)cnc1N)c1c(Cl)ccc(F)c1Cl [Crizotinib] + Cc1nc(NC(=O)N2CCC[C@H]2C(N)=O)sc1-c1ccnc(C(C)(C)C(F)(F)F)c1 [Alpelisib] (partner 2 µM)
Assay: relative viability (nuclei count vs DMSO), 5 days (fraction); higher = more cells survive
Details: first compound 0.1 µM
How it was run: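 Relative viability was taken as the ratio of nuclei in treated wells to nuclei in vehicle wells. Lung cancer cell lines in 1536-well plates received compounds by pin tool one day after seeding, either one drug alone or a fixed anchor-drug dose plus five library-drug doses (not always all listed) in √10 steps. Nuclei were counted on 4× images after 5 days of treatment, and values are medians of duplicate plates.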

Row | Cell Line | relative viability
1 | EMC-BAC-2 | 0.715
2 | EPLC-272H | 0.942
3 | H3255 | 0.705
4 | HARA | 0.863
5 | HCC-15 | 0.906
6 | HCC-44 | 0.853
7 | HCC-78 | 0.299
8 | HCC-366 | 0.382
9 | HCC-827 | 0.938
10 | HOP-62 | 0.731
11 | IA-LM | 0.805
12 | LC-2-ad | 1.01
13 | LCLC-97TM1 | 0.24
14 | LCLC-103H | 1.05
15 | LK-2 | 0.898
16 | LOU-NH91 | 0.72
17 | LU99A | 0.508
18 | LXF-289 | 1.01
19 | NCI-H727 | 0.583
20 | NCI-H1299 | 0.999
21 | NCI-H1563 | 1.03
22 | NCI-H1703 | 0.329
23 | NCI-H2170 | 0.74
24 | NCI-H2228 | 0.769

Same assay, conditions: first compound 0.3162 µM

Row | Cell Line | relative viability
25 | 201T | 1.04
26 | A549 | 0.677
27 | ABC-1 | 1.02
28 | BEN | 1.26
29 | CAL-12T | 1.13
30 | COR-L23 | 0.758
31 | COR-L 105 | 0.88
32 | Calu-6 | 0.925
33 | EBC-1 | 0.202
34 | EKVX | 0.905
35 | EPLC-272H | 0.864
36 | H3255 | 0.62
37 | HARA | 0.881
38 | HCC-15 | 0.848
39 | HCC-44 | 0.744
40 | HCC-78 | 0.279

Row | Cell Line | relative viability
41 | HCC-827 | 0.859
42 | HOP-62 | 0.964
43 | IA-LM | 0.737
44 | LCLC-97TM1 | 0.265
45 | LCLC-103H | 1.13
46 | LK-2 | 1.3
47 | LOU-NH91 | 0.707
48 | LU99A | 0.442
49 | LXF-289 | 0.987
50 | NCI-H727 | 0.674
51 | NCI-H1299 | 1.13
52 | NCI-H1563 | 0.938
53 | NCI-H1703 | 0.364
54 | NCI-H2170 | 0.709
55 | NCI-H2228 | 0.451

Same assay, conditions: first compound 1 µM

Row | Cell Line | relative viability
56 | 201T | 1.06
57 | A549 | 0.793
58 | A-427 | 1.06
59 | ABC-1 | 0.976
60 | BEN | 1.12
61 | CAL-12T | 1.36
62 | COR-L23 | 0.665
63 | COR-L 105 | 0.828
64 | Calu-6 | 1.06
65 | EBC-1 | 0.269
66 | EKVX | 0.864
67 | EMC-BAC-2 | 0.781
68 | EPLC-272H | 1.02
69 | H3255 | 0.639
70 | HARA | 0.767
71 | HCC-15 | 0.956
72 | HCC-44 | 0.815
73 | HCC-78 | 0.223
74 | HCC-366 | 0.343
75 | HOP-62 | 1.08
76 | IA-LM | 0.675
77 | LC-2-ad | 0.895
